Assays:
[1] = system: advanced solid malignancies; experiment: ProGem1 phase I study: clinical efficacy; assay type: in vivo, human; settings: patients with advanced progressive cancers who have exhausted all standard therapeutic options, many resistant or refractory to prior nucleoside analogue therapy
Excerpt: (§1) ProGem1 was a first-time-in-human (FTIH), phase I, open label, two stage study to investigate the safety, tolerability, clinical efficacy, pharmacokinetics (PK) and pharmacodynamics (PD) of NUC-1031 given in two parallel dosing schedules in subjects with advanced solid malignancies (EudraCT Number: 2011-005232-26). Subjects had the following tumour types at study entry: colorectal cancer (7 subjects), unknown primary (3), ovarian cancer (12), breast cancer (4), pancreatic cancer (9), cholangiocarcinoma (7), endometrial cancer (3), cervical cancer (2), lung cancer (7), mesothelioma (3), oesophageal cancer (3), cancer of the fallopian tube (1), trophoblast (1), renal cancer (1), gastric cancer (1), anal cancer (1), cancer of the thymus (1) and osteosarcoma (1).

[2] = ProGem1 phase I study: pharmacokinetics (intracellular dFdCTP, dFdU); assay type: in vivo, human; settings: relative to levels normally associated with gemcitabine
Excerpt: as §1

[3] = stability stress testing of crystalline form; assay type: physicochemical; settings: ambient light, 40° C. and 75% relative humidity, 7 days
Excerpt: Form VIII appeared physically stable upon stability stress testing.

Compound	anti-tumour activity [1]	levels of the potentially toxic metabolite 2′,2′-difluoro-2′-deoxyuridine (dFdU) released, relative to gemcitabine [2]	change in crystalline form upon storage [3]	decrease in purity upon storage [3]
C[C@H](NP(=O)(OC[C@H]1O[C@@H](n2ccc(N)nc2=O)C(F)(F)C1O)Oc1ccccc1)C(=O)OCc1ccccc1 (stereo partly shown) [NUC-1031]	anti-tumour activity	less than half	–	–
C[C@H](N[P@](=O)(OC[C@H]1O[C@@H](n2ccc(N)nc2=O)C(F)(F)C1O)Oc1ccccc1)C(=O)OCc1ccccc1 (stereo partly shown) [Form VIII]	–	–	No change in crystalline form	no decrease in purity

From patent US11377467B2, “Crystalline form of gemcitabine” (NuCana plc, priority 2015, dated 2022)
